Measurements taken from article PMC6668441, “Comparative Study of Subcutaneous and Orthotopic Mouse Models of Prostate Cancer: Vascular Perfusion, Vasculature Density, Hypoxic Burden and BB2r-Targeting Efficacy” (Scientific Reports, 2019).

How the values were obtained:
[1] = biological target: T1, BB2r (gastrin-releasing peptide receptor) (Homo sapiens, UniProt P30550); assay: In vitro competitive cell-binding, displacement of [125I-Tyr4]-Bombesin on PC-3 cells; conditions: PC-3 cells (~3×10^4), 4 °C, 40 min, RPMI 1640 pH 7.4, mean ± SEM (n = 6)
T1 construct: host or cells: PC-3 human prostate cancer cells (whole cells in suspension)
T1 sequence (P30550 whole entry): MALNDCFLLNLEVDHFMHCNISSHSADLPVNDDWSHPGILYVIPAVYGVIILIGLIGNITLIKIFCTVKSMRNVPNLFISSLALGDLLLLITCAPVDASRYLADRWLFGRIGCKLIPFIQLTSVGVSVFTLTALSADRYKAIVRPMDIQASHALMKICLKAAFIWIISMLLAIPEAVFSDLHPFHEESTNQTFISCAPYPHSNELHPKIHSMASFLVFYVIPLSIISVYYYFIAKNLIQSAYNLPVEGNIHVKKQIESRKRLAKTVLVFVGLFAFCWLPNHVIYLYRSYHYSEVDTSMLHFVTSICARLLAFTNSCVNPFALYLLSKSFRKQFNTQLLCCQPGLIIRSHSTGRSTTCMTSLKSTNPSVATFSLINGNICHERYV
Experimental: Data were presented as Mean ± SD/SEM as noted. […] In vitro stability studies of the radioconjugate in various buffers were analyzed by the two-tailed Student’s t-test. For comparison between the two models, analysis of the biodistribution studies, hypoxic burden and blood vessel density of tumor was carried out by a two-tailed Student’s t-test. Comparisons of the means of the BB2r-uptake, blood perfusion, hypoxic burden and blood vessel density of the tumors among the three tumor volume groups for each animal model were analyzed by one-way ANOVA. If the overall p-value was statistically significant, pairwise comparisons were adjusted using Tukey’s method. A p-value < 0.05 was considered statistically significant.
In Vitro Competitive Cell-Binding Studies […]
binding assays using PC-3 cells.
(§1) Establishment of Stably Transfected PC-3-Luc Cells
(firefly)-2A-GFP (Puro), AMSBIO) for transfection.
The medium was removed and replaced with 0.5 […]
and swirled to mix. […] Once the cells grew to confluence, they […]
1.5 mL of suspended cells in PBS at […]
to culture for in vitro and in vivo studies.
Cells were incubated at 37 °C
Development of PC-3 Xenograft SCID Mice
The tumor size was monitored during the growth by caliper measurement.
Development of PC-3 Orthotopic SCID mice […]
clips. […] The animals were monitored continuously for the following weeks. […]

[2] = tested on: orthotopic PC-3 xenografts; assay: Biodistribution, perfusion tracer, orthotopic PC-3 xenograft model; assay type: in vivo; conditions: for blood uptake / bone uptake / brain uptake / excretion (urine and fecal material) / heart uptake / kidney uptake / large intestine uptake / liver uptake / lung uptake / muscle uptake / pancreas uptake / small intestine uptake / spleen uptake / stomach uptake / tumor uptake (perfusion): orthotopic model, 10 µCi i.v., 5 min p.i., mean ± SD
Experimental: (§2) For the subcutaneous model, 5-week old female SCID mice were inoculated in the flanks with 5 × 10^6 PC-3 cells (American Type Culture Collection (ATCC), VA) in Matrigel®. The tumor size was monitored by caliper. For the generation of the orthotopic model, the PC-3-Luc cells were selected by 0.5 µg/mL puromycin twice before inoculation. The male 6-weeks SCID mice were anesthetized, the muscles of the abdomen area were cut after retracting the skin, and the prostate gland exposed. 50 μL of PC-3-Luc cell suspension at 0.5 × 10^6/mL in Matrigel® was injected into a dorsal prostatic lobe. The wound was closed in two layers and the skin was clipped. Animals were given analgesic drugs for 3 days and the tumors were monitored by an IVIS optical imaging system.
(§3) The mice were injected, monitored and dissected in the lab with the temperature of 23 °C and 17% relative humidity. All animals were awake until sacrifice. The body weight, tumor volume and tumor luminescence of the mice were recorded every three days. At four-to-seven weeks post-xenograft implantation, the mice were divided into three groups by tumor volume: <300, 300–700 and >700 mm^3 in both animal models. […] Each mouse (average weight: 20 g for female mice and 25 g for male mice) was treated with pimonidazole solution (80 mg/kg in PBS) via intraperitoneal injection. […] After an additional 1 h, the mice were injected intravenously with a PBS solution containing 10 µCi (370 kBq) of [^99mTc]NaTcO4 and 15 mg/kg Hoechst 33342. The animals were sacrificed 5 minutes later, and their tissues collected. The excised tissues were weighed, the radioactivity for each tissue was measured by γ-counter and the percentage injected dose per gram (%ID/g) was calculated for each tissue. […]
as §1
To generate the PC-3-Luc cells, we utilized pre-made lentivirus particles encoding luciferase and GFP (EF1a-Luciferase (firefly)-2A-GFP (Puro), AMSBIO) for transfection. Briefly, normal PC-3 cells were seeded in a 24-well plate using 0.5 mL of medium containing 0.5 × 10^5 cells/mL and incubated overnight. The medium was removed and replaced with 0.5 mL of fresh medium pre-mixed with 2.5 ȝL TransduxTM. To each well was added 2 ȝL of the lentivirus particle solution and swirled to mix. The plate was returned to the incubator and cultured for 3 days. Once the cells grew to confluence, they were harvested and transferred to larger plates (from 6-well plates to 60 mm dishes). 1.5 mL of suspended cells in PBS at a concentration of 5 × 10^6/mL was sorted by the FACS method to give the GFP positive (PC-3-Luc) cells that were returned to culture for in vitro and in vivo studies.
The normal PC-3 cells and PC-3-Luc were cultured in our laboratory, as per ATCC protocols, in Ham’s F-12K medium containing 10% FBS, 2.5 mM L-glutamine, 15 mM HEPES and 0.5 mM sodium pyruvate. Cells were incubated at 37 °C […]
(§4) All animal experiments were performed in accordance with the NIH animal use guideline and protocol approved by the […]

[3] = tested on: subcutaneous PC-3 xenografts; assay: Biodistribution, perfusion tracer, subcutaneous PC-3 xenograft model; assay type: in vivo; conditions: 5 min p.i., mean ± SD
Experimental: as §2, §3
The normal PC-3 cells and PC-3-Luc were cultured in our laboratory, as per ATCC protocols, in Ham’s F-12K medium
containing 10% FBS, 2.5 mM L-glutamine, 15 mM HEPES and 0.5 mM sodium pyruvate. Cells were incubated at 37 °C
as §4

[4] = tumor volume 300-700 mm^3, 10 µCi i.v.
[5] = tumor volume <300 mm^3, 10 µCi i.v.
[6] = tumor volume >700 mm^3, 10 µCi i.v.

CSCC[C@H](NC(=O)[C@H](CC(C)C)NC(=O)[C@H](Cc1c[nH]cn1)NC(=O)CNC(=O)[C@@H](NC(=O)[C@H](C)NC(=O)[C@H](Cc1c[nH]c2ccccc12)NC(=O)[C@H](CCC(N)=O)NC(=O)CCOCCOCCOCCOCCNC(=O)[C@@H](CO)NC(=O)[C@@H](CO)NC(=O)[C@@H](CO)NC(=O)[C@@H](CO)NC(=O)[C@@H](CO)NC(=O)CN1CCN(CC(=O)O)CCN(CC(=O)O)CCN(CC(=O)O)CC1)C(C)C)C(N)=O [DOTA-SP714, DOTA-(D)S-(D)S-(D)S-(D)S-(D)S-PEG3–BBN(7–14)NH2]
IC50 [1]: 9.8 ± 1.7 nM

[Na+].[O]=[Tc](=[O])(=[O])[O-] [[^99mTc]TcO4^−, sodium pertechnetate]
stomach uptake, orthotopic versus subcutaneous model ([2]; Table S1): approximately 8 fold
tumor perfusion, orthotopic versus subcutaneous model ([2]; across tumor volume groups): 3.7–4.3 fold
blood uptake ([2]; tumor volume 300-700 mm^3): 3.51 ± 1.28 %ID/g
bone uptake ([2]; tumor volume 300-700 mm^3): 1.27 ± 0.68 %ID/g
brain uptake ([2]; tumor volume 300-700 mm^3): 0.18 ± 0.18 %ID/g
excretion (urine and fecal material) ([2]; tumor volume 300-700 mm^3): 37.55 ± 14.08 %ID
heart uptake ([2]; tumor volume 300-700 mm^3): 1.20 ± 0.63 %ID/g
kidney uptake ([2]; tumor volume 300-700 mm^3): 2.25 ± 2.25 %ID/g
large intestine uptake ([2]; tumor volume 300-700 mm^3): 2.24 ± 0.57 %ID/g
liver uptake ([2]; tumor volume 300-700 mm^3): 2.92 ± 0.95 %ID/g
lung uptake ([2]; tumor volume 300-700 mm^3): 2.78 ± 1.27 %ID/g
muscle uptake ([2]; tumor volume 300-700 mm^3): 0.59 ± 0.18 %ID/g
pancreas uptake ([2]; tumor volume 300-700 mm^3): 5.17 ± 5.32 %ID/g
small intestine uptake ([2]; tumor volume 300-700 mm^3): 1.36 ± 0.45 %ID/g
spleen uptake ([2]; tumor volume 300-700 mm^3): 1.70 ± 1.20 %ID/g
stomach uptake ([2]; tumor volume 300-700 mm^3): 19.15 ± 6.40 %ID/g
tumor uptake (perfusion) ([2]; tumor volume 300-700 mm^3): 2.94 ± 0.76 %ID/g
blood uptake ([2]; tumor volume <300 mm^3): 3.13 ± 1.02 %ID/g
bone uptake ([2]; tumor volume <300 mm^3): 1.10 ± 0.73 %ID/g
brain uptake ([2]; tumor volume <300 mm^3): 0.14 ± 0.04 %ID/g
excretion (urine and fecal material) ([2]; tumor volume <300 mm^3): 39.51 ± 22.40 %ID
heart uptake ([2]; tumor volume <300 mm^3): 1.29 ± 0.61 %ID/g
kidney uptake ([2]; tumor volume <300 mm^3): 1.85 ± 0.91 %ID/g
large intestine uptake ([2]; tumor volume <300 mm^3): 1.52 ± 0.36 %ID/g
liver uptake ([2]; tumor volume <300 mm^3): 2.51 ± 0.73 %ID/g
lung uptake ([2]; tumor volume <300 mm^3): 2.86 ± 1.06 %ID/g
muscle uptake ([2]; tumor volume <300 mm^3): 0.47 ± 0.20 %ID/g
pancreas uptake ([2]; tumor volume <300 mm^3): 4.94 ± 4.84 %ID/g
small intestine uptake ([2]; tumor volume <300 mm^3): 1.31 ± 0.31 %ID/g
spleen uptake ([2]; tumor volume <300 mm^3): 2.84 ± 1.87 %ID/g
stomach uptake ([2]; tumor volume <300 mm^3): 16.33 ± 4.08 %ID/g
tumor uptake (perfusion) ([2]; tumor volume <300 mm^3): 2.23 ± 1.09 %ID/g
blood uptake ([2]; tumor volume >700 mm^3): 3.96 ± 0.90 %ID/g
bone uptake ([2]; tumor volume >700 mm^3): 0.85 ± 0.49 %ID/g
brain uptake ([2]; tumor volume >700 mm^3): 0.16 ± 0.07 %ID/g
excretion (urine and fecal material) ([2]; tumor volume >700 mm^3): 46.43 ± 13.26 %ID
heart uptake ([2]; tumor volume >700 mm^3): 1.79 ± 0.87 %ID/g
kidney uptake ([2]; tumor volume >700 mm^3): 1.45 ± 0.64 %ID/g
large intestine uptake ([2]; tumor volume >700 mm^3): 2.14 ± 0.55 %ID/g
liver uptake ([2]; tumor volume >700 mm^3): 3.02 ± 0.77 %ID/g
lung uptake ([2]; tumor volume >700 mm^3): 3.34 ± 0.84 %ID/g
muscle uptake ([2]; tumor volume >700 mm^3): 0.63 ± 0.24 %ID/g
pancreas uptake ([2]; tumor volume >700 mm^3): 4.03 ± 3.24 %ID/g
small intestine uptake ([2]; tumor volume >700 mm^3): 1.32 ± 0.78 %ID/g
spleen uptake ([2]; tumor volume >700 mm^3): 1.80 ± 1.37 %ID/g
stomach uptake ([2]; tumor volume >700 mm^3): 15.44 ± 3.98 %ID/g
tumor uptake (perfusion) ([2]; tumor volume >700 mm^3): 3.19 ± 0.66 %ID/g
average tumor uptake of perfusion tracer, orthotopic versus subcutaneous model ([2]; tumor volume 300–700 mm^3, p = 0.0001): 4.3 fold
average tumor uptake of perfusion tracer, orthotopic versus subcutaneous model ([2]; tumor volume <300 mm^3, p = 0.0008): 4.1 fold
average tumor uptake of perfusion tracer, orthotopic versus subcutaneous model ([2]; tumor volume >700 mm^3, p = 0.0001): 3.7 fold
blood uptake [3, 4]: 0.88 ± 0.34 %ID/g
bone uptake [3, 4]: 0.16 ± 0.06 %ID/g
brain uptake [3, 4]: 0.03 ± 0.02 %ID/g
excretion (urine and fecal material) [3, 4]: 85.78 ± 9.65 %ID
heart uptake [3, 4]: 0.22 ± 0.11 %ID/g
kidney uptake [3, 4]: 0.53 ± 0.19 %ID/g
large intestine uptake [3, 4]: 0.43 ± 0.47 %ID/g
liver uptake [3, 4]: 0.41 ± 0.19 %ID/g
lung uptake [3, 4]: 0.49 ± 0.21 %ID/g
muscle uptake [3, 4]: 0.11 ± 0.04 %ID/g
pancreas uptake [3, 4]: 3.30 ± 2.30 %ID/g
small intestine uptake [3, 4]: 0.61 ± 0.43 %ID/g
spleen uptake [3, 4]: 0.87 ± 0.74 %ID/g
stomach uptake [3, 4]: 2.41 ± 1.25 %ID/g
tumor uptake (perfusion) [3, 4]: 0.68 ± 0.49 %ID/g
blood uptake [3, 5]: 1.01 ± 0.06 %ID/g
bone uptake [3, 5]: 0.34 ± 0.27 %ID/g
brain uptake [3, 5]: 0.06 ± 0.04 %ID/g
excretion (urine and fecal material) [3, 5]: 83.64 ± 9.63 %ID
heart uptake [3, 5]: 0.40 ± 0.24 %ID/g
kidney uptake [3, 5]: 0.66 ± 0.33 %ID/g
large intestine uptake [3, 5]: 0.44 ± 0.35 %ID/g
liver uptake [3, 5]: 0.67 ± 0.43 %ID/g
lung uptake [3, 5]: 0.74 ± 0.27 %ID/g
muscle uptake [3, 5]: 0.19 ± 0.11 %ID/g
pancreas uptake [3, 5]: 2.26 ± 1.95 %ID/g
small intestine uptake [3, 5]: 0.52 ± 0.38 %ID/g
spleen uptake [3, 5]: 1.35 ± 1.21 %ID/g
stomach uptake [3, 5]: 2.26 ± 1.06 %ID/g
tumor uptake (perfusion) [3, 5]: 0.51 ± 0.31 %ID/g
blood uptake [3, 6]: 2.61 ± 1.54 %ID/g
bone uptake [3, 6]: 0.34 ± 0.31 %ID/g
brain uptake [3, 6]: 0.06 ± 0.05 %ID/g
excretion (urine and fecal material) [3, 6]: 82.76 ± 12.78 %ID
heart uptake [3, 6]: 0.43 ± 0.38 %ID/g
kidney uptake [3, 6]: 1.11 ± 0.92 %ID/g
large intestine uptake [3, 6]: 0.53 ± 0.53 %ID/g
liver uptake [3, 6]: 0.85 ± 0.77 %ID/g
lung uptake [3, 6]: 1.24 ± 1.00 %ID/g
muscle uptake [3, 6]: 0.21 ± 0.20 %ID/g
pancreas uptake [3, 6]: 6.22 ± 6.53 %ID/g
small intestine uptake [3, 6]: 0.53 ± 0.43 %ID/g
spleen uptake [3, 6]: 0.43 ± 0.51 %ID/g
stomach uptake [3, 6]: 3.03 ± 2.52 %ID/g
tumor uptake (perfusion) [3, 6]: 0.86 ± 0.37 %ID/g
tumor uptake (perfusion) ([3]; tumor volume >700 mm^3, 10 µCi i.v., listed as [99mTc]TcO4-): 0.86 ± 0.35 %ID/g
